Experimental data from PubChem BioAssay AID2842 (Southern Research Institute, 2010).
Values after ≈ are worked out from the molar mass of the structure shown.

These compounds were tested on M. tuberculosis H37Rv growth inhibition (assay: Mycobacterium tuberculosis H37Rv growth inhibition, putative kinase inhibitor library, confirmatory dose response (AID 2842);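 note: bacteria incubated one week before Alamar blue readout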).
Compound `Cc1ccc(Nc2nc(Nc3cccc(F)c3)nc(N3CCOCC3)n2)cc1C` has an IC90 of 13.5 µg/mL (≈ 34.2 µM).
For `N#C/C(=C\c1ccc([N+](=O)[O-])cc1)c1nc2ccccc2[nH]1`, the IC90 was 6.12 µg/mL (≈ 21.1 µM).
`COc1ccccc1-c1cnn2c(Nc3cccc(Cl)c3)cc(C)nc12` showed an IC90 of 1.72 µg/mL (≈ 4.71 µM).
Compound `Oc1cc(OCc2ccccc2Cl)ccc1-c1[nH]ncc1-c1ccccc1` has an IC90 of 7.69 µg/mL (≈ 20.4 µM).
`CC(C)(C)C(=O)Nc1nnc(C2=COCCO2)o1` showed an IC90 of 48.6 µg/mL (≈ 192 µM).
Work on `Cc1ccc(C)c(-c2nnc(NC(=O)Cc3ccccc3)o2)c1` yielded an IC90 of 18.2 µg/mL (≈ 59.4 µM).
Work on `COc1cccc(C(=O)Nc2nc3c(s2)CC(C)CC3)c1` (stereo unspecified) yielded an IC90 of 14.1 µg/mL (≈ 46.7 µM).
For `Cc1ccc(-c2nnc(NC(=O)c3cc([N+](=O)[O-])ccc3Cl)o2)c(C)c1`, the IC90 was 1.57 µg/mL (≈ 4.21 µM).
Work on `COC(=O)COc1cccc(/C=C2\Oc3cc(OC)ccc3C2=O)c1` yielded an IC90 of 17.3 µg/mL (≈ 50.7 µM).
`CC1CN(c2ncnc3c2c(-c2ccccc2)cn3-c2ccccc2)CC(C)O1` (stereo unspecified) was tested, and the IC90 was 29.1 µg/mL (≈ 75.8 µM).
In the case of `Cn1c(/C(C#N)=C/c2c[nH]c3ccccc23)nc2ccccc21`, the IC90 is reported as 10.2 µg/mL (≈ 34.3 µM).
Compound `O=C(CSc1c[nH]c2ccccc12)Nc1ccc(Br)cc1` has an IC90 of 3.2 µg/mL (≈ 8.86 µM).
With `Cc1cc(C)c(-c2csc(NC(=O)c3ccc4c(c3)OCCO4)n2)c(C)c1` the IC90 was 7.63 µg/mL (≈ 20.1 µM).
`COC(=O)c1ccc(NC(=O)CSc2nc(-c3cccc(C)c3)ns2)cc1` was tested, and the IC90 was < 0.2 µg/mL.
Compound `Cc1c(Cl)ccc2sc(N(CCCn3ccnc3)C(=O)c3ccco3)nc12` has an IC90 of 0.23 µg/mL (≈ 0.574 µM).
In the case of `CCC(=O)Nc1nnc(-c2ccc(OC)cc2)o1`, the IC90 is reported as 4.39 µg/mL (≈ 17.8 µM).
Compound `COc1ccc(-c2nnc(SCC(=O)Nc3cc(C)on3)o2)cc1` has an IC90 of 6.72 µg/mL (≈ 19.4 µM).
With `Cc1ccc(C)c(-c2nnc(NC(=O)/C=C/c3cccs3)o2)c1` the IC90 was 54.5 µg/mL (≈ 168 µM).
`Clc1ccc(Nc2ccc(NCc3ccccc3)nn2)cc1` was tested, and the IC90 was 5.5 µg/mL (≈ 17.7 µM).
In the case of `Cc1nnc2ccc(-c3cccc(NC(=O)c4cccc(C(F)(F)F)c4)c3)nn12`, the IC90 is reported as 22.6 µg/mL (≈ 56.7 µM).
Work on `Nc1ncnc(Sc2nc3ccccc3[nH]2)c1[N+](=O)[O-]` yielded an IC90 of 17.1 µg/mL (≈ 59.2 µM).
`O=C(Nc1nnc(-c2ccc(F)cc2)o1)c1ccco1` was tested, and the IC90 was 2.84 µg/mL (≈ 10.4 µM).
`CCOC(=O)N1CCN(c2ncnc3c2cnn3-c2ccc(C)c(Cl)c2)CC1` was tested, and the IC90 was 12.2 µg/mL (≈ 30.5 µM).
In the case of `O=C(Nc1nnc(-c2ccc3c(c2)CCCC3)o1)c1cccc(Cl)c1`, the IC90 is reported as 8.65 µg/mL (≈ 24.4 µM).
In the case of `O=Nc1c(-c2ccccc2)cc2ccccn12`, the IC90 is reported as 3.32 µg/mL (≈ 14.9 µM).
Work on `O=C(Nc1nnc(-c2ccc3c(c2)CCCC3)o1)c1ccccc1Cl` yielded an IC90 of 1.11 µg/mL (≈ 3.14 µM).
For `O=C(CC(SCc1ccco1)c1cccc([N+](=O)[O-])c1)c1ccco1` (stereo unspecified), the IC90 was < 0.2 µg/mL.
For `CCOc1ccc2nc(N3CCCC3)sc2c1`, the IC90 was 17.2 µg/mL (≈ 69.3 µM).
Work on `Cc1ccc(C)c(-c2csc(NC(=O)c3ccc([N+](=O)[O-])s3)n2)c1` yielded an IC90 of 3.37 µg/mL (≈ 9.38 µM).
Work on `O=C(CCSc1ccccc1)Nc1nnc(-c2ccc3c(c2)CCCC3)o1` yielded an IC90 of 1.93 µg/mL (≈ 5.09 µM).
`Cc1ccc(-c2nnc(NC(=O)c3ccccc3Cl)o2)c(C)c1` was tested, and the IC90 was < 0.2 µg/mL.
In the case of `Cc1cc(C)c2nc(NNC(=O)c3cc(-c4cccs4)nc4ccccc34)sc2c1`, the IC90 is reported as 24.6 µg/mL (≈ 57.2 µM).
In the case of `COc1ccc(-c2nc(N3CCCCC3)nc3n[nH]c(N)c23)cc1`, the IC90 is reported as 12.9 µg/mL (≈ 39.8 µM).
With `COc1ccc(Nc2c3c4c(cccc4[nH]c2=O)C(=O)c2ccccc2-3)cc1` the IC90 was 12.4 µg/mL (≈ 33.7 µM).
For `CC1CN(c2ncnc3c2c(-c2ccccc2)cn3-c2ccc(F)cc2)CC(C)O1` (stereo unspecified), the IC90 was 42.4 µg/mL (≈ 105 µM).
With `O=C(Nc1ccc(Cl)c(Cl)c1)NC1CC(=O)N(c2cccc(F)c2)C1` (stereo unspecified) the IC90 was 6.41 µg/mL (≈ 16.8 µM).
With `O=C(OCc1ccco1)c1cc2cc(Br)ccc2oc1=O` the IC90 was 16.3 µg/mL (≈ 46.7 µM).
`O=C(/C=C/c1ccccc1)Nc1nnc(-c2ccc3c(c2)CCCC3)o1` showed an IC90 of 1.67 µg/mL (≈ 4.83 µM).
Compound `CC(=O)Nc1ccc2nc(Nc3nc4ccc(Cl)cc4s3)sc2c1` has an IC90 of 8.93 µg/mL (≈ 23.8 µM).
With `O=C(NC1NC(c2ccccc2)=CS1)c1ccc([N+](=O)[O-])s1` (stereo unspecified) the IC90 was 3.42 µg/mL (≈ 10.3 µM).
`CSc1nnc(C)c(=O)n1COC(=O)c1ccc2ccccc2c1` showed an IC90 of 3.38 µg/mL (≈ 9.9 µM).
Compound `O=C1CN(C(=O)c2cc(Cl)ccc2Cl)C(c2ccccc2)c2cc(Cl)ccc2N1` (stereo unspecified) has an IC90 of 6.59 µg/mL (≈ 14.8 µM).
Work on `O=C(OCc1ccco1)c1cc2ccccc2oc1=O` yielded an IC90 of 20.4 µg/mL (≈ 75.3 µM).
In the case of `Cc1ccc(Cl)cc1N1CCN(CCn2c(C)c(C)n3c4c(=O)[nH]c(=O)n(C)c4nc23)CC1`, the IC90 is reported as 49.7 µg/mL (≈ 106 µM).
With `CCOC(=O)c1ccc(-n2cc(O)c(C(=O)OCC)n2)cc1` the IC90 was 20 µg/mL (≈ 65.7 µM).
`Cc1cc(C)c2nc(NNC(=O)c3ccccc3F)sc2c1` was tested, and the IC90 was 3.08 µg/mL (≈ 9.77 µM).
